Assay results as given in PubChem BioAssay AID248 (DTP/NCI, 2004).
“And” between values parts separate entries of the source, which are not always exact repeats. Equal entries are not always repeated. Toxic doses and inconclusive results are not listed. No stated cut-off is given here; in the data, active means T/C of 150% or more; inactive means T/C below 125%.

System: L1210 leukemia ip in BDF1 mice, survival T/C
Assay: NCI In Vivo Anticancer Drug Screen. Data for tumor model L1210 Leukemia (intraperitoneal) in B6D2F1 (BDF1) mice
Settings: endpoint: mean survival time, higher = longer survival
Outline: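 Tumor cells were implanted, animals were treated, and survival was followed. The result divides the treated measurement by the vehicle-control measurement.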

[1] = dose: 100.0 mg/kg/injection, schedule: Q01DX001 (ip), vehicle: other
[2] = dose: 100.0 mg/kg/injection, schedule: Q04DX003 (ip), vehicle: Klucel (hydroxypropylcellulose) (HPC)
[3] = dose: 200.0 mg/kg/injection, schedule: Q01DX001 (ip), vehicle: other
[4] = dose: 200.0 mg/kg/injection, schedule: Q04DX003 (ip), vehicle: Klucel (hydroxypropylcellulose) (HPC)
[5] = dose: 400.0 mg/kg/injection, schedule: Q01DX001 (ip), vehicle: other
[6] = dose: 400.0 mg/kg/injection, schedule: Q04DX003 (ip), vehicle: Klucel (hydroxypropylcellulose) (HPC)
[7] = dose: 100.0 mg/kg/injection, schedule: Q01DX001 (ip), vehicle: Klucel (hydroxypropylcellulose) (HPC)
[8] = dose: 100.0 mg/kg/injection, schedule: Q01DX001 (ip), vehicle: saline
[9] = dose: 200.0 mg/kg/injection, schedule: Q01DX001 (ip), vehicle: saline
[10] = dose: 75.0 mg/kg/injection, schedule: Q01DX001 (ip), vehicle: saline
[11] = dose: 150.0 mg/kg/injection, schedule: Q01DX001 (ip), vehicle: saline
[12] = dose: 300.0 mg/kg/injection, schedule: Q01DX001 (ip), vehicle: saline

Measured: T/C

CC(C)(C)N1OC1c1cccc(Cl)c1 (configuration not stated)
inactive: [1] 95 % of control | [2] 98 % of control | [3] 94 % of control | [4] 93 % of control | [5] 97 % of control | [6] 101 % of control

NC(N)=NN=C1CCC(C2CCCCC2)CC1 (configuration not stated)
inactive: dose: 15.0 mg/kg/injection, schedule: Q01DX Z (ip), vehicle: methylcellulose (MC) 95 % of control | dose: 30.0 mg/kg/injection, schedule: Q01DX Z (ip), vehicle: methylcellulose (MC) 97 % of control | dose: 30.0 mg/kg/injection, schedule: Q01DX Z (oral), vehicle: methylcellulose (MC) 92 % of control | dose: 60.0 mg/kg/injection, schedule: Q01DX Z (ip), vehicle: methylcellulose (MC) 92 % of control | dose: 60.0 mg/kg/injection, schedule: Q01DX Z (oral), vehicle: methylcellulose (MC) 92 % of control | dose: 120.0 mg/kg/injection, schedule: Q01DX Z (ip), vehicle: methylcellulose (MC) 92 % of control | dose: 120.0 mg/kg/injection, schedule: Q01DX Z (oral), vehicle: methylcellulose (MC) 93 % of control

O=C(Nc1cccc(C(F)(F)F)c1)Oc1ccc(F)cc1
inactive: [7] 104 % of control | dose: 100.0 mg/kg/injection, schedule: Q01DX009 (ip), vehicle: Klucel (hydroxypropylcellulose) (HPC) 107 % of control and 116 % of control | dose: 100.0 mg/kg/injection, schedule: Q04DX002 (ip), vehicle: Klucel (hydroxypropylcellulose) (HPC) 92 % of control | [2] 94 % of control | dose: 200.0 mg/kg/injection, schedule: Q01DX001 (ip), vehicle: Klucel (hydroxypropylcellulose) (HPC) 109 % of control | dose: 200.0 mg/kg/injection, schedule: Q01DX009 (ip), vehicle: Klucel (hydroxypropylcellulose) (HPC) 104 % of control and 115 % of control | dose: 200.0 mg/kg/injection, schedule: Q04DX002 (ip), vehicle: Klucel (hydroxypropylcellulose) (HPC) 93 % of control and 92 % of control | [4] 99 % of control | dose: 400.0 mg/kg/injection, schedule: Q01DX001 (ip), vehicle: Klucel (hydroxypropylcellulose) (HPC) 98 % of control | dose: 400.0 mg/kg/injection, schedule: Q01DX009 (ip), vehicle: Klucel (hydroxypropylcellulose) (HPC) 104 % of control and 113 % of control | dose: 400.0 mg/kg/injection, schedule: Q04DX002 (ip), vehicle: Klucel (hydroxypropylcellulose) (HPC) 102 % of control and 108 % of control | [6] 105 % of control

O=C(O)CC1CCN(C(=O)c2ccccc2)C(Cc2c[nH]c3ccccc23)C1O (configuration not stated)
inactive: [8] 97 % of control | [9] 101 % of control | dose: 400.0 mg/kg/injection, schedule: Q01DX001 (ip), vehicle: saline 92 % of control

CC(O)C(C)Cl (configuration not stated)
inactive: dose: 50.0 mg/kg/injection, schedule: Q01DX009 (ip), vehicle: saline 100 % of control | dose: 100.0 mg/kg/injection, schedule: Q01DX009 (ip), vehicle: saline 103 % of control

COC(OC)C1=C(Cl)C(Cl)=C(Cl)/C1=N\Nc1ccccc1
inactive: [2] 109 % of control | [4] 98 % of control | [6] 100 % of control

CSc1nncc(-c2ccccc2)n1
inactive: dose: 25.0 mg/kg/injection, schedule: Q04DX003 (ip), vehicle: Klucel (hydroxypropylcellulose) (HPC) 97 % of control | dose: 50.0 mg/kg/injection, schedule: Q04DX003 (ip), vehicle: Klucel (hydroxypropylcellulose) (HPC) 96 % of control | [7] 100 % of control | [2] 102 % of control

CC(=O)Oc1ccc2ncccc2c1Cc1c(OC(C)=O)ccc2ncccc12
inactive: dose: 75.0 mg/kg/injection, schedule: Q04DX003 (ip), vehicle: saline 91 % of control | dose: 150.0 mg/kg/injection, schedule: Q04DX003 (ip), vehicle: saline 95 % of control | dose: 300.0 mg/kg/injection, schedule: Q04DX003 (ip), vehicle: saline 95 % of control

OC1CSC1
inactive: dose: 50.0 mg/kg/injection, schedule: Q01DX001 (ip), vehicle: saline 89 % of control | [8] 96 % of control | dose: 100.0 mg/kg/injection, schedule: Q01DX009 (ip), vehicle: saline with Tween-80 96 % of control | dose: 100.0 mg/kg/injection, schedule: Q04DX003 (ip), vehicle: saline with Tween-80 98 % of control | [9] 100 % of control | dose: 200.0 mg/kg/injection, schedule: Q01DX009 (ip), vehicle: saline with Tween-80 98 % of control | dose: 200.0 mg/kg/injection, schedule: Q04DX003 (ip), vehicle: saline with Tween-80 98 % of control | dose: 400.0 mg/kg/injection, schedule: Q01DX009 (ip), vehicle: saline with Tween-80 96 % of control | dose: 400.0 mg/kg/injection, schedule: Q04DX003 (ip), vehicle: saline with Tween-80 102 % of control

O=S(=O)(NCCBr)c1ccccc1
inactive: dose: 75.0 mg/kg/injection, schedule: Q01DX001 (ip), vehicle: carboxymethylcellulose (CMC) 101 % of control | dose: 150.0 mg/kg/injection, schedule: Q01DX001 (ip), vehicle: carboxymethylcellulose (CMC) 114 % of control | dose: 300.0 mg/kg/injection, schedule: Q01DX001 (ip), vehicle: carboxymethylcellulose (CMC) 108 % of control

O=C(O)c1ccc2c(c1)C(=O)N(c1ccccc1)C2=O
inactive: dose: 100.0 mg/kg/injection, schedule: Q04DX002 (ip), vehicle: saline with Tween-80 93 % of control | dose: 200.0 mg/kg/injection, schedule: Q04DX002 (ip), vehicle: saline with Tween-80 93 % of control | dose: 400.0 mg/kg/injection, schedule: Q04DX002 (ip), vehicle: saline with Tween-80 97 % of control

O=C(O)CS(=O)(=O)c1nc2ccccc2[nH]1
inactive: dose: 100.0 mg/kg/injection, schedule: Q01DX009 (ip), vehicle: carboxymethylcellulose (CMC) 94 % of control | dose: 200.0 mg/kg/injection, schedule: Q01DX009 (ip), vehicle: carboxymethylcellulose (CMC) 91 % of control | dose: 400.0 mg/kg/injection, schedule: Q01DX009 (ip), vehicle: carboxymethylcellulose (CMC) 91 % of control

C=CC[P+](Cc1cccc(C)c1)(c1ccccc1)c1ccccc1
inactive: dose: 6.25 mg/kg/injection, schedule: Q01DX009 (ip), vehicle: saline with Tween-80 107 % of control | dose: 12.5 mg/kg/injection, schedule: Q01DX009 (ip), vehicle: saline with Tween-80 115 % of control

S=c1[nH]c(=S)c2[nH]cnc2[nH]1
inactive: dose: 50.0 mg/kg/injection, schedule: Q01DX001 (ip), vehicle: other 113 % of control | dose: 50.0 mg/kg/injection, schedule: Q01DX009 (ip), vehicle: other 94 % of control | [1] 101 % of control | dose: 100.0 mg/kg/injection, schedule: Q01DX009 (ip), vehicle: other 96 % of control | [3] 103 % of control | dose: 200.0 mg/kg/injection, schedule: Q01DX009 (ip), vehicle: other 97 % of control | [5] 107 % of control | dose: 400.0 mg/kg/injection, schedule: Q01DX009 (ip), vehicle: other 102 % of control | dose: 600.0 mg/kg/injection, schedule: Q01DX001 (ip), vehicle: other 100 % of control | dose: 1200.0 mg/kg/injection, schedule: Q01DX001 (ip), vehicle: other 117 % of control

COC(=O)C1C(C)(C(=O)OC)N=NC1(c1ccccc1)c1ccccc1 (configuration not stated)
inactive: dose: 100.0 mg/kg/injection, schedule: Q01DX001 (ip), vehicle: steriod suspending solution 101 % of control | dose: 200.0 mg/kg/injection, schedule: Q01DX001 (ip), vehicle: steriod suspending solution 104 % of control | dose: 400.0 mg/kg/injection, schedule: Q01DX001 (ip), vehicle: steriod suspending solution 98 % of control

Nc1ccc(S(=O)[O-])cc1.Nc1ccc(S(=O)[O-])cc1.[Zn+2]
inactive: [10] 95 % of control | [11] 96 % of control | [12] 102 % of control

C=CS(=O)(=O)CCCCCCCC
inactive: [10] 97 % of control | dose: 75.0 mg/kg/injection, schedule: Q04DX003 (ip), vehicle: other 92 % of control | [11] 89 % of control | dose: 150.0 mg/kg/injection, schedule: Q04DX003 (ip), vehicle: other 100 % of control | [12] 91 % of control | dose: 300.0 mg/kg/injection, schedule: Q04DX003 (ip), vehicle: other 89 % of control

NC(N)=NCC(CCN1CCCCC1)c1cccc2ccccc12 (configuration not stated)
inactive: dose: 5.0 mg/kg/injection, schedule: Q01DX009 (ip), vehicle: saline 105 % of control | dose: 10.0 mg/kg/injection, schedule: Q01DX009 (ip), vehicle: saline 100 % of control | dose: 12.5 mg/kg/injection, schedule: Q04DX002 (ip), vehicle: saline 93 % of control | dose: 20.0 mg/kg/injection, schedule: Q01DX009 (ip), vehicle: saline 106 % of control | dose: 25.0 mg/kg/injection, schedule: Q04DX002 (ip), vehicle: saline 93 % of control
